The text below walks through data of paper PMC4587093 (Biochimica et biophysica acta, 2015).

Data set [1] deals with T1, CYP1D1 (Danio rerio, UniProt A0ACM8Q602).
T1 sequence (A0ACM8Q602 1-512): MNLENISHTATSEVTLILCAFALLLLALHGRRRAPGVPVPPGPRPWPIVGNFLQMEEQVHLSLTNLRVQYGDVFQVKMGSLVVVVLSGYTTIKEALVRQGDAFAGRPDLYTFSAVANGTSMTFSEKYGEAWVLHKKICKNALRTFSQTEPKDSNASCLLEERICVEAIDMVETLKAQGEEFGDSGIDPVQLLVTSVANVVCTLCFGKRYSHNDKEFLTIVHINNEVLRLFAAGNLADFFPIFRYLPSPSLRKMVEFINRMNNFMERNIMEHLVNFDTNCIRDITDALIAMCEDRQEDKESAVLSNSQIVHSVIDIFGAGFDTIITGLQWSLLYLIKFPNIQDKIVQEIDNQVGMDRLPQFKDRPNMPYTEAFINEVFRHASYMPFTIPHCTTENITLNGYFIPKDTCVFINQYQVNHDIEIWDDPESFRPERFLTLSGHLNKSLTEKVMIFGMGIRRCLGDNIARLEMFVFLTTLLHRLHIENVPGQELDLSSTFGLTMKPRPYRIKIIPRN
The data set is classed as biochemical.

Data set [2] addresses T2, CYP1C2 (Danio rerio, UniProt A0AC58HLV5).
T2 sequence (A0AC58HLV5 1-514): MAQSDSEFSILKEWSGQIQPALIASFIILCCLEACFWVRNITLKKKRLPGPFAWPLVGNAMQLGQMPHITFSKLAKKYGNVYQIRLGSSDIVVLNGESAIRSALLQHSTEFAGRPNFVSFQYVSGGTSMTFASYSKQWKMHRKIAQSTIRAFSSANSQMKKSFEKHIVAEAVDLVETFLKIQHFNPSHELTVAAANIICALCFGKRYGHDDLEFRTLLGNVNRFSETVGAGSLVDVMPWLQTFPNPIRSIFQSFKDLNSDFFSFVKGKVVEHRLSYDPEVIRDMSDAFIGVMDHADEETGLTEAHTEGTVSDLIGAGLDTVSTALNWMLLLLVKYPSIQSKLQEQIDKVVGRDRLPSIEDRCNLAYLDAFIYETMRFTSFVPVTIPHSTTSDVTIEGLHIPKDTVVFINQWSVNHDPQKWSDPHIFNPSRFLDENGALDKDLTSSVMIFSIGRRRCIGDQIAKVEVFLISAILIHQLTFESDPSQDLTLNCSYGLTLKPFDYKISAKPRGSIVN
T2 sequence (P16603 2-691 partner): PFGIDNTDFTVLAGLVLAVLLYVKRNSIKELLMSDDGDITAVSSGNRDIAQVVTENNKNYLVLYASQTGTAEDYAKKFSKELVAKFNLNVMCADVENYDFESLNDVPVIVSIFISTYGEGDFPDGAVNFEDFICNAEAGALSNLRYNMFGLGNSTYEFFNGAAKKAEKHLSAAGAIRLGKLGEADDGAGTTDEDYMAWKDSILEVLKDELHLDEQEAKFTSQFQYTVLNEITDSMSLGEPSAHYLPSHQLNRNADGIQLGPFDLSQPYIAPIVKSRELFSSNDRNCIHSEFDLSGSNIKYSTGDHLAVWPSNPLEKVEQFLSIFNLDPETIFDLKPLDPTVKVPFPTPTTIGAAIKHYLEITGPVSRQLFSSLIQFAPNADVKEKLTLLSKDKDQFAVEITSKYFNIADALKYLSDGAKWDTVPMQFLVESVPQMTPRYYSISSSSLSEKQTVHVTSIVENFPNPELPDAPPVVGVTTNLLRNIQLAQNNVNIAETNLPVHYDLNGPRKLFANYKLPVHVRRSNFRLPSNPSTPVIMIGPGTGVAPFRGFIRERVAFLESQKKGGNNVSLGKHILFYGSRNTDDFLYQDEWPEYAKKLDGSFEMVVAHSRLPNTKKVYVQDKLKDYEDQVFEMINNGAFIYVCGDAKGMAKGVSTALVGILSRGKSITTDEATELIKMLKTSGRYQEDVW
The class given is biochemical.

The target of data set [3] is T3, CYP1C1 (Danio rerio, UniProt A0PJ31).
T3 sequence (A0PJ31 1-523): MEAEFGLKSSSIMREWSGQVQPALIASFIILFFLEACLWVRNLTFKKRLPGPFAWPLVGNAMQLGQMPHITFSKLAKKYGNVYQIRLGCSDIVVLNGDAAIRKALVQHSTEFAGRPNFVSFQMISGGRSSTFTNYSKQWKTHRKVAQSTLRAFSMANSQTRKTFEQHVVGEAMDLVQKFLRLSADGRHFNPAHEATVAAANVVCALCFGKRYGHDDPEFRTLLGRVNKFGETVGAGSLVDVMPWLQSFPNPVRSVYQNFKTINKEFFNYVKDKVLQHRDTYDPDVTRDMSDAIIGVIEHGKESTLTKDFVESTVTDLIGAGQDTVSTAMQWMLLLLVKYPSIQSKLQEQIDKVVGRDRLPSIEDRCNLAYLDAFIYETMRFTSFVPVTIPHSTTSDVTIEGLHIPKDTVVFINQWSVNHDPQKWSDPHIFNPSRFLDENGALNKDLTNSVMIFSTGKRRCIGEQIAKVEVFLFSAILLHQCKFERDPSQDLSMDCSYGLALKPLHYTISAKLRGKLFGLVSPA
The class given is biochemical.

The target of data set [4] is T4, CYP1A (Danio rerio, UniProt A0A8M1PCF4).
T4 sequence (A0A8M1PCF4 1-519): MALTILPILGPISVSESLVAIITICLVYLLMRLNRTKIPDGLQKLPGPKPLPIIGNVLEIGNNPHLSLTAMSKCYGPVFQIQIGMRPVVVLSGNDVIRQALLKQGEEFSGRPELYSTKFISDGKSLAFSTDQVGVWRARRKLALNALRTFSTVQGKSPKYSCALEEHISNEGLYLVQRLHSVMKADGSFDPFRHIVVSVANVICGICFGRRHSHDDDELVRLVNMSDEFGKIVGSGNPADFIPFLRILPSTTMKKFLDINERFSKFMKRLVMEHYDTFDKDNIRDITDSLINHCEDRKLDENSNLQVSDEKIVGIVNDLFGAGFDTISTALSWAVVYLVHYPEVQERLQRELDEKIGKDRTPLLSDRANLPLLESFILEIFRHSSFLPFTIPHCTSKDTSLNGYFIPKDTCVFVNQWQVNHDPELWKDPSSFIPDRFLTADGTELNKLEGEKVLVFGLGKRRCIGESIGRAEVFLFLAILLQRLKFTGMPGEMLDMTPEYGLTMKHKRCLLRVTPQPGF
Kind of data set: O-deethylation rate. The class given is cell-based.

In data set [5] the target is T3, CYP1C1. Kind of data set: kcat for O-demethylation. The data set is classed as cell-based.
The target of data set [6] is T3, CYP1C1. The data set is classed as cell-based.
Substrate in data set [7]: CCOc1ccc2nc3ccc(=O)cc-3oc2c1
Nature of the data set: Km for O-deethylation. The class given is biochemical, Danio rerio. Conditions: heme; NADPH.

Consider `c1ccc2c(c1)cc1ccc3cccc4ccc2c1c34` [BaP, benzo[a]pyrene], for which the Ki was 12000 nM in data set [1], 200 nM in data set [2] and 60 nM in data set [3].
As for `CCOc1ccc2nc3ccc(=O)cc-3oc2c1` [ER, 7-ethoxyresorufin], in data set [4], the “CYP expressed via pYES/DEST52 ^a / 1A” value is on record as 89.3 ± 1.9 pmol min^−1 mg^−1 microsomal protein.
For the molecule `COc1ccc2nc3ccc(=O)cc-3oc2c1` [MR, 7-methoxyresorufin], in data set [5], the “kcat (mol substrate oxidized/mol P450/min) ^b / MR” value is listed as 4.9 ± 0.6 mol substrate oxidized/mol P450/min.
With `CCOc1ccc2c(C(F)(F)F)cc(=O)oc2c1` [EFC, 7-ethoxy-4-trifluoromethyl-coumarin], in data set [6], the “kcat (mol substrate oxidized/mol P450/min) ^a / EFC ^c, ^d” value was 1.51 ± 0.14 mol substrate oxidized/mol P450/min.

B1: CYP1C2 (Danio rerio) (protein)
chain: MAQSDSEFSILKEWSGQIQPALIASFIILCCLEACFWVRNITLKKKRLPGPFAWPLVGNAMQLGQMPHITFSKLAKKYGNVYQIRLGSSDIVVLNGESAIRSALLQHSTEFAGRPNFVSFQYVSGGTSMTFASYSKQWKMHRKIAQSTIRAFSSANSQMKKSFEKHIVAEAVDLVETFLKIQHFNPSHELTVAAANIICALCFGKRYGHDDLEFRTLLGNVNRFSETVGAGSLVDVMPWLQTFPNPIRSIFQSFKDLNSDFFSFVKGKVVEHRLSYDPEVIRDMSDAFIGVMDHADEETGLTEAHTEGTVSDLIGAGLDTVSTALNWMLLLLVKYPSIQSKLQEQIDKVVGRDRLPSIEDRCNLAYLDAFIYETMRFTSFVPVTIPHSTTSDVTIEGLHIPKDTVVFINQWSVNHDPQKWSDPHIFNPSRFLDENGALDKDLTSSVMIFSIGRRRCIGDQIAKVEVFLISAILIHQLTFESDPSQDLTLNCSYGLTLKPFDYKISAKPRGSIVN
For B1, the Km in data set [7] amounted to 0.11 ± 0.01 µM.

B2: CYP1C1 (Danio rerio) (protein)
chain: MEAEFGLKSSSIMREWSGQVQPALIASFIILFFLEACLWVRNLTFKKRLPGPFAWPLVGNAMQLGQMPHITFSKLAKKYGNVYQIRLGCSDIVVLNGDAAIRKALVQHSTEFAGRPNFVSFQMISGGRSSTFTNYSKQWKTHRKVAQSTLRAFSMANSQTRKTFEQHVVGEAMDLVQKFLRLSADGRHFNPAHEATVAAANVVCALCFGKRYGHDDPEFRTLLGRVNKFGETVGAGSLVDVMPWLQSFPNPVRSVYQNFKTINKEFFNYVKDKVLQHRDTYDPDVTRDMSDAIIGVIEHGKESTLTKDFVESTVTDLIGAGQDTVSTAMQWMLLLLVKYPSIQSKLQEQIDKVVGRDRLPSIEDRCNLAYLDAFIYETMRFTSFVPVTIPHSTTSDVTIEGLHIPKDTVVFINQWSVNHDPQKWSDPHIFNPSRFLDENGALNKDLTNSVMIFSTGKRRCIGEQIAKVEVFLFSAILLHQCKFERDPSQDLSMDCSYGLALKPLHYTISAKLRGKLFGLVSPA
In the case of B2, the Km in data set [7] was 0.085 ± 0.005 µM.
